{"source": "paper PMC9276676", "about": "“Difluoromethylornithine (DFMO) and AMXT 1501 inhibit capsule biosynthesis in pneumococci” (Scientific Reports, 2022)", "key": {"[1]": {"set-up": "method as in PMID 30262852", "details": "human ref 35; cited from earlier work"}, "D39 (serotype 2) capsule": {"test_system": "D39 (serotype 2) capsule", "test": "Total capsular polysaccharide (CPS) immunoblot with densitometry", "assay_type": "cell-based, Streptococcus pneumoniae", "description": "(§1) S. pneumoniae strains were cultured with DFMO and AMXT 1501 at varying final concentrations of 1/2, 1/4, and 1/8 MIC to OD600 0.2–0.3 either individually or together to estimate any additive or synergistic effects. Capsular polysaccharides (CPS) were extracted and quantified in triplicate, as described previously[26] with slight modification. Briefly, CPS was extracted in a lysis buffer (4% deoxycholate, 50 µg/mL DNAse I and 50 µg/mL RNAse A) at 37 °C for 10 min and centrifuged at 18,000×g for 10 min. The supernatant (2 µL) was spotted on a 0.2-µm-pore-size nitrocellulose membrane (Thermo Fisher Scientific, Waltham, MA, USA) and oven dried at 60 °C for 15 min. The membranes were blocked and incubated with different types of antisera for capsule detection: antisera type- 4 (for TIGR4), 2 (for D39), polyclonal (for EF3030) and 3 (for WU2) (Cedarlane, Burlington, NC, USA). A conjugated polyclonal goat anti-rabbit IgG-HRP (Agilent Technologies, Santa Clara, CA, USA) was used for enhanced chemiluminescence (ECL) detection in all the strains (Thermo Fisher Scientific, Waltham, MA, USA) and scanned using a ChemiDoc XRS+ with Image Lab software (Bio-Rad, Hercules, CA, USA). Densitometry analysis of the immunoblot was done with NIH ImageJ software.\n(§2) We determined the impact of varying concentrations of DFMO (1/8 to 1/2 MIC) on CPS in all serotypes (2, 4, 19F, and 3) used in this study. […] D39 was treated with 1/8 MIC DFMO alone, 1/4 MIC agmatine (Agm) alone, a combination of 1/8 MIC DFMO and 1/4 MIC Agm, and a control without DFMO or Agm. CPS was extracted as described in the previous section and immunoblot analysis with type 2 antisera was performed to detect CPS semi-quantitatively."}, "[2]": {"test_system": "TIGR4 (serotype 4) capsule", "test": "Total capsular polysaccharide (CPS) immunoblot with densitometry", "assay_type": "cell-based, Streptococcus pneumoniae", "description": "as §1, §2"}, "[3]": {"test_system": "EF3030 (serotype 19F) capsule", "test": "Total capsular polysaccharide (CPS) immunoblot with densitometry", "assay_type": "cell-based, Streptococcus pneumoniae", "description": "as §1, §2"}, "WU2 (serotype 3) capsule": {"test_system": "WU2 (serotype 3) capsule", "test": "Total capsular polysaccharide (CPS) immunoblot with densitometry", "assay_type": "cell-based, Streptococcus pneumoniae", "description": "as §1, §2"}, "EF3030": {"test_system": "EF3030", "test": "Viability/replication at 1/2 MIC DFMO (CFU on blood agar)", "assay_type": "cell-based, Streptococcus pneumoniae", "details": "1/2 MIC DFMO (137 mM)", "description": "(§3) S. pneumoniae serotypes 4 (TIGR4), 2 (D39), 19F (EF3030) and 3 (WU2) were cultured in Todd Hewitt broth supplemented with yeast extract (THY). Supplementation with DFMO ranging from 1.1 to 549 mM was carried out in triplicate in a 96-well plate and incubated at 37 °C and 5% CO2 in a Cytation™ 5 cell imaging multi-mode reader (BioTek, Winooski, VT). The change in optical density at 600 nm (OD600) was measured every hour for 24 h and used to determine the minimum inhibitory concentration (MIC) of DFMO. The optical density data was analyzed using GrowthRates 4.0 software. To determine whether DFMO at sub-MIC is bacteriostatic or lethal to pneumococcal cells, all strains were cultured in the presence or absence of 1/2 MIC DFMO. OD600 was measured every hour and CFU were enumerated on a blood agar plate (BAP) every 2 h over an 8 h incubation period."}, "TIGR4": {"test_system": "TIGR4", "test": "Viability/replication at 1/2 MIC DFMO (CFU on blood agar)", "assay_type": "cell-based, Streptococcus pneumoniae", "details": "1/2 MIC DFMO (137 mM)", "description": "as §3"}, "D39": {"test_system": "D39", "test": "Viability/replication at 1/2 MIC DFMO (CFU on blood agar)", "assay_type": "cell-based, Streptococcus pneumoniae", "details": "1/2 MIC DFMO (137 mM)", "description": "as §3"}, "[4]": {"test_system": "S. pneumoniae serotype 3 (WU2)", "test": "DFMO susceptibility and growth in THY (OD600, MIC)", "assay_type": "cell-based, Streptococcus pneumoniae", "set-up": "Growthrate: unit not given here", "description": "as §3"}, "[5]": {"test_system": "S. pneumoniae serotype 2 (D39)", "test": "DFMO susceptibility and growth in THY (OD600, MIC)", "assay_type": "cell-based, Streptococcus pneumoniae", "set-up": "Growthrate: unit not given here", "details": "D39", "description": "as §3"}}, "data": [{"smiles": "NCCC[C@](N)(C(=O)O)C(F)F", "note": "[DFMO, α-difluoromethylornithine]", "values": [{"measurement": "safe dosage for use in human", "setting": "[1]", "result": "around 1.0 g/m^2/day"}, {"measurement": "safe dosage for use in human, as concentration", "setting": "[1]", "result": "1 to 2", "unit": "mM"}, {"measurement": "less capsule compared to untreated controls (densitometry of immunoblots)", "setting": "D39 (serotype 2) capsule", "result": "~71", "unit": "%"}, {"measurement": "concentration that inhibits CPS", "setting": "D39 (serotype 2) capsule; D39, 1/8 MIC", "result": 34, "unit": "mM"}, {"measurement": "total CPS (capsule) by immunoblot", "setting": "D39 (serotype 2) capsule; D39, DFMO 1/8 MIC 34 mM, agmatine 1/4 MIC 20 mM, AMXT 1501 1/2 MIC 7.4 µM, alone or with agmatine", "result": "inhibits the capsule production"}, {"measurement": "less capsule compared to untreated controls (densitometry of immunoblots)", "setting": "[2]", "result": "approximately 85%"}, {"measurement": "inhibition of CPS", "setting": "[2]; serotype 4, DFMO less than 137 mM", "result": "failed to inhibit CPS"}, {"measurement": "less capsule compared to untreated controls (densitometry of immunoblots)", "setting": "[3]", "result": "~84", "unit": "%"}, {"measurement": "inhibition of CPS", "setting": "[3]; serotype 19F, DFMO less than 137 mM", "result": "failed to inhibit CPS"}, {"measurement": "less capsule compared to untreated controls (densitometry of immunoblots)", "setting": "WU2 (serotype 3) capsule", "result": "~39", "unit": "%"}, {"measurement": "inhibition of CPS", "setting": "WU2 (serotype 3) capsule; serotype 3, DFMO less than 137 mM", "result": "failed to inhibit CPS"}, {"measurement": "effect on viability (viability curves)", "setting": "EF3030", "result": "some bacteriostatic effect"}, {"measurement": "effect on viability (viability curves)", "setting": "TIGR4", "result": "some bacteriostatic effect"}, {"measurement": "effect on viability (viability curves)", "setting": "D39", "result": "some bacteriostatic effect"}, {"measurement": "difference in growth rate in presence or absence of DFMO (GrowthRates software)", "setting": "[4]", "result": "did not identify any significant differences"}, {"measurement": "growth curve versus control", "setting": "[4]; 1/2 MIC DFMO (137 mM)", "result": "longer lag phase and a lower maximal O.D"}, {"measurement": "Growthrate", "setting": "[4]; DFMO 0.2 µg/µL", "result": 0.046}, {"measurement": "Max OD", "setting": "[4]; DFMO 0.2 µg/µL", "result": 0.497}, {"measurement": "Growthrate", "setting": "[4]; DFMO 0.4 µg/µL", "result": 0.047}, {"measurement": "Max OD", "setting": "[4]; DFMO 0.4 µg/µL", "result": 0.509}, {"measurement": "Growthrate", "setting": "[4]; DFMO 0.8 µg/µL", "result": 0.047}, {"measurement": "Max OD", "setting": "[4]; DFMO 0.8 µg/µL", "result": 0.548}, {"measurement": "Growthrate", "setting": "[4]; DFMO 1.6 µg/µL", "result": 0.046}, {"measurement": "Max OD", "setting": "[4]; DFMO 1.6 µg/µL", "result": 0.575}, {"measurement": "Growthrate", "setting": "[4]; DFMO 3.1 µg/µL", "result": 0.050}, {"measurement": "Max OD", "setting": "[4]; DFMO 3.1 µg/µL", "result": 0.650}, {"measurement": "Growthrate", "setting": "[4]; DFMO 6.3 µg/µL", "result": 0.048}, {"measurement": "Max OD", "setting": "[4]; DFMO 6.3 µg/µL", "result": 0.652}, {"measurement": "Growthrate", "setting": "[4]; DFMO 12.5 µg/µL", "result": 0.048}, {"measurement": "Max OD", "setting": "[4]; DFMO 12.5 µg/µL", "result": 0.696}, {"measurement": "Growthrate", "setting": "[4]; DFMO 25.0 µg/µL", "result": 0.046}, {"measurement": "Max OD", "setting": "[4]; DFMO 25.0 µg/µL", "result": 0.303}, {"measurement": "Growthrate", "setting": "[4]; DFMO 50.0 µg/µL", "result": 0.000}, {"measurement": "Growthrate", "setting": "[4]; DFMO 100.0 µg/µL", "result": 0.000}, {"measurement": "difference in growth rate in presence or absence of DFMO (GrowthRates software)", "setting": "[5]", "result": "did not identify any significant differences"}, {"measurement": "growth curve versus control", "setting": "[5]; 1/2 MIC DFMO (137 mM)", "result": "longer lag phase and a lower maximal O.D"}, {"measurement": "Growthrate", "setting": "[5]; DFMO 0.2 µg/µL", "result": 0.025}, {"measurement": "Max OD", "setting": "[5]; DFMO 0.2 µg/µL", "result": 1.555}, {"measurement": "Growthrate", "setting": "[5]; DFMO 0.4 µg/µL", "result": 0.019}, {"measurement": "Max OD", "setting": "[5]; DFMO 0.4 µg/µL", "result": 1.573}, {"measurement": "Growthrate", "setting": "[5]; DFMO 0.8 µg/µL", "result": 0.018}, {"measurement": "Max OD", "setting": "[5]; DFMO 0.8 µg/µL", "result": 1.615}, {"measurement": "Growthrate", "setting": "[5]; DFMO 1.6 µg/µL", "result": 0.040}, {"measurement": "Max OD", "setting": "[5]; DFMO 1.6 µg/µL", "result": 1.648}, {"measurement": "Growthrate", "setting": "[5]; DFMO 3.1 µg/µL", "result": 0.039}, {"measurement": "Max OD", "setting": "[5]; DFMO 3.1 µg/µL", "result": 1.642}, {"measurement": "Growthrate", "setting": "[5]; DFMO 6.3 µg/µL", "result": 0.037}, {"measurement": "Max OD", "setting": "[5]; DFMO 6.3 µg/µL", "result": 1.647}, {"measurement": "Growthrate", "setting": "[5]; DFMO 12.5 µg/µL", "result": 0.036}, {"measurement": "Max OD", "setting": "[5]; DFMO 12.5 µg/µL", "result": 1.613}, {"measurement": "Growthrate", "setting": "[5]; DFMO 25.0 µg/µL", "result": 0.029}, {"measurement": "Max OD", "setting": "[5]; DFMO 25.0 µg/µL", "result": 0.985}, {"measurement": "Growthrate", "setting": "[5]; DFMO 50.0 µg/µL", "result": 0.000}, {"measurement": "Max OD", "setting": "[5]; DFMO 50.0 µg/µL", "result": 0.000}, {"measurement": "Growthrate", "setting": "[5]; DFMO 100.0 µg/µL", "result": 0.000}, {"measurement": "Max OD", "setting": "[5]; DFMO 100.0 µg/µL", "result": 0.000}]}]}
